Assay results published in article PMC12888861, “Antibacterial activity of enmetazobactam against Acinetobacter spp.: a molecular dissection of mechanism of action and resistance determinants” (Antimicrobial Agents and Chemotherapy, 2025).
pIC50: −log10 of the molar value. Values after ≈ are worked out from the molar mass of the structure shown. Where two headings read alike, the source gives them in different places.

Columns and labels:
[1] = system: A. non-baumannii isolates (n = 87); assay: MIC, broth microdilution (EUCAST), A. non-baumannii isolates; type: cell-based, Acinetobacter spp. (non-baumannii); details: for MIC: read-out: MIC
Procedure, shortened: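 Clinical isolates from the Spanish National Acinetobacter spp. 2020 collection were tested by EUCAST v.15 broth microdilution, including enmetazobactam on its own. Duplicate runs used A. baumannii ATCC 19606 as reference.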

OXA-23 = target: T1, OXA-23 (Acinetobacter baumannii, UniProt Q9L4P2); assay: OXA-23 inhibition assay (nitrocefin hydrolysis IC50); type: biochemical
T1 construct: GST (N); made in house; host or cells: Escherichia coli BL21
T1 sequence (Q9L4P2 18-273): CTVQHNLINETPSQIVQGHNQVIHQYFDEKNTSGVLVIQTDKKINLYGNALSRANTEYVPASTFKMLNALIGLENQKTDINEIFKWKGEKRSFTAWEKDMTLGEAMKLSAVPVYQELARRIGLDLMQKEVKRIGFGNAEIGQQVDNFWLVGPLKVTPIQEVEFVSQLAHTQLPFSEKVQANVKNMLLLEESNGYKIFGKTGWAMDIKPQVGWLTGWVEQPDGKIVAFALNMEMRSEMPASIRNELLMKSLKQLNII
Protocol: The Michaelis-Menten constant (Km) was determined by fitting the data to the Michaelis-Menten equation, following established protocols ([38]). The kcat (hydrolysis rate constant of the β-lactamase) was obtained by linearization of the kinetic data ([39]). To assess the possible inhibitory capacity of enmetazobactam against the CHDLs of A. baumannii, specific OXA-23 inhibition kinetics assays were performed in a Nanoquant Infinite spectrophotometer (Tecan). […] Also, the dissociation constant (koff), which represents the rate at which the enzyme-inhibitor complex dissociates (i.e., the proportion of the enzyme-inhibitor complex that dissociates per unit of time), was determined through a jump-dilution assay that monitored OXA-23 activity recovery as the enzyme-inhibitor complex dissociated. OXA-23 (1 µM) was preincubated for 30 min at 37°C with excess of inhibitors (50× IC₅₀) to ensure full acyl-enzyme complex formation. Subsequently, the mixture was diluted 1:5,000 to allow gradual complex dissociation. […] Enzymatic activity, reflecting the progressive dissociation of the acyl-enzyme complex, was monitored spectrophotometrically at 490 nm for 8 h. The resulting progress curves were fitted using GraphPad Prism (GraphPad Software, MA, USA) to equation 1 to estimate koff, where V0 is the initial, inhibited enzyme velocity; Vs is the steady-state uninhibited enzyme velocity, and t is time.

[2] = Acinetobacter, A. non-baumannii isolates (n=87), ETZ fixed 8 mg/L in combinations

`CC1(C)[C@H](C(=O)O)N2C(=O)C[C@H]2S1(=O)=O` [sulbactam] showed an MIC ([1]; Acinetobacter pittii, MBC set, isolate NO-Ab89, A. pittii) of 0.5 mg/L (≈ 2.14 µM), an MIC ([1]; Acinetobacter pittii, isolate NO-Ab59, Acinetobacter pittii, in combinations ETZ fixed at 8 mg/L) of 1 mg/L and an MIC ([1]; Acinetobacter pittii, isolate NO-Ab66, Acinetobacter pittii, in combinations ETZ fixed at 8 mg/L) of 1 mg/L. The MIC ([1]; Acinetobacter pittii, isolate NO-Ab73, Acinetobacter pittii, in combinations ETZ fixed at 8 mg/L) was 0.5 mg/L, the MIC ([1]; Acinetobacter pittii, isolate NO-Ab75, Acinetobacter pittii, in combinations ETZ fixed at 8 mg/L) was 1 mg/L and the MIC ([1]; Acinetobacter pittii, isolate NO-Ab78, Acinetobacter pittii, in combinations ETZ fixed at 8 mg/L) was 0.5 mg/L. For the same compound, the MIC ([1]; Acinetobacter pittii, isolate NO-Ab82, Acinetobacter pittii, in combinations ETZ fixed at 8 mg/L) was 0.5 mg/L, the MIC ([1]; Acinetobacter pittii, isolate NO-Ab89, Acinetobacter pittii, in combinations ETZ fixed at 8 mg/L) was 0.5 mg/L and the MIC ([1]; Acinetobacter pittii, isolate NO-Ab90, Acinetobacter pittii, in combinations ETZ fixed at 8 mg/L) was 0.5 mg/L. The MIC ([1]; Acinetobacter pittii, isolate NO-Ab97, Acinetobacter pittii, in combinations ETZ fixed at 8 mg/L) was 1 mg/L, the MIC ([1]; Acinetobacter pittii, isolate NO-Ab105, Acinetobacter pittii, in combinations ETZ fixed at 8 mg/L) was 1 mg/L and the MIC ([1]; Acinetobacter pittii, isolate NO-Ab106, Acinetobacter pittii, in combinations ETZ fixed at 8 mg/L) was 0.5 mg/L. For the same compound, the MIC ([1]; Acinetobacter pittii, isolate NO-Ab107, Acinetobacter pittii, in combinations ETZ fixed at 8 mg/L) was 0.5 mg/L, the MIC ([1]; Acinetobacter pittii, isolate NO-Ab111, Acinetobacter pittii, in combinations ETZ fixed at 8 mg/L) was 1 mg/L and the MIC ([1]; Acinetobacter pittii, isolate NO-Ab113, Acinetobacter pittii, in combinations ETZ fixed at 8 mg/L) was 1 mg/L. The MIC ([1]; Acinetobacter pittii, isolate NO-Ab118, Acinetobacter pittii, in combinations ETZ fixed at 8 mg/L) was 2 mg/L, the MIC ([1]; Acinetobacter pittii, isolate NO-Ab135, Acinetobacter pittii, in combinations ETZ fixed at 8 mg/L) was 0.5 mg/L and the MIC ([1]; Acinetobacter pittii, isolate NO-Ab145, Acinetobacter pittii, in combinations ETZ fixed at 8 mg/L) was 1 mg/L. It also gave an MIC ([1]; Acinetobacter pittii, isolate NO-Ab151, Acinetobacter pittii, in combinations ETZ fixed at 8 mg/L) of 2 mg/L, an MIC ([1]; Acinetobacter pittii, isolate NO-Ab154, Acinetobacter pittii, in combinations ETZ fixed at 8 mg/L) of 0.5 mg/L and an MIC ([1]; Acinetobacter pittii, isolate NO-Ab157, Acinetobacter pittii, in combinations ETZ fixed at 8 mg/L) of 1 mg/L. The MIC ([1]; Acinetobacter pittii, isolate NO-Ab162, Acinetobacter pittii, in combinations ETZ fixed at 8 mg/L) was 0.5 mg/L, the MIC ([1]; Acinetobacter pittii, isolate NO-Ab164, Acinetobacter pittii, in combinations ETZ fixed at 8 mg/L) was 0.5 mg/L and the MIC ([1]; Acinetobacter pittii, isolate NO-Ab178, Acinetobacter pittii, in combinations ETZ fixed at 8 mg/L) was 0.5 mg/L. It also gave an MIC ([1]; Acinetobacter pittii, isolate NO-Ab197, Acinetobacter pittii, in combinations ETZ fixed at 8 mg/L) of 0.5 mg/L, an MIC ([1]; Acinetobacter proteolyticus, isolate NO-Ab99, Acinetobacter proteolyticus, in combinations ETZ fixed at 8 mg/L) of 1 mg/L and an MIC ([1]; Acinetobacter proteolyticus, isolate NO-Ab102, Acinetobacter proteolyticus, in combinations ETZ fixed at 8 mg/L) of 1 mg/L. The MIC ([1]; Acinetobacter proteolyticus, isolate NO-Ab210, Acinetobacter proteolyticus, in combinations ETZ fixed at 8 mg/L) was 0.25 mg/L, the MIC ([1]; Acinetobacter radioresistens, isolate NO-Ab175, Acinetobacter radioresistens, in combinations ETZ fixed at 8 mg/L) was 1 mg/L and the MIC ([1]; Acinetobacter radioresistens, isolate NO-Ab215, Acinetobacter radioresistens, in combinations ETZ fixed at 8 mg/L) was 0.25 mg/L. It also gave an MIC ([1]; Acinetobacter ursingii, isolate NO-Ab3, Acinetobacter ursingii, in combinations ETZ fixed at 8 mg/L) of 0.25 mg/L, an MIC ([1]; Acinetobacter ursingii, isolate NO-Ab64, Acinetobacter ursingii, in combinations ETZ fixed at 8 mg/L) of 1 mg/L and an MIC ([1]; Acinetobacter ursingii, isolate NO-Ab87, Acinetobacter ursingii, in combinations ETZ fixed at 8 mg/L) of 0.12 mg/L. The MIC ([1]; Acinetobacter ursingii, isolate NO-Ab103, Acinetobacter ursingii, in combinations ETZ fixed at 8 mg/L) was 0.5 mg/L, the MIC ([1]; Acinetobacter ursingii, isolate NO-Ab119, Acinetobacter ursingii, in combinations ETZ fixed at 8 mg/L) was 0.5 mg/L and the MIC ([1]; Acinetobacter ursingii, isolate NO-Ab120, Acinetobacter ursingii, in combinations ETZ fixed at 8 mg/L) was 0.5 mg/L. The MIC ([1]; Acinetobacter ursingii, isolate NO-Ab123, Acinetobacter ursingii, in combinations ETZ fixed at 8 mg/L) was 2 mg/L, the MIC ([1]; Acinetobacter ursingii, isolate NO-Ab126, Acinetobacter ursingii, in combinations ETZ fixed at 8 mg/L) was 1 mg/L and the MIC ([1]; Acinetobacter ursingii, isolate NO-Ab147, Acinetobacter ursingii, in combinations ETZ fixed at 8 mg/L) was 2 mg/L. The MIC ([1]; Acinetobacter ursingii, isolate NO-Ab155, Acinetobacter ursingii, in combinations ETZ fixed at 8 mg/L) was 1 mg/L, the MIC ([1]; Acinetobacter ursingii, isolate NO-Ab165, Acinetobacter ursingii, in combinations ETZ fixed at 8 mg/L) was 1 mg/L and the MIC ([1]; Acinetobacter ursingii, isolate NO-Ab166, Acinetobacter ursingii, in combinations ETZ fixed at 8 mg/L) was 0.25 mg/L. The MIC ([1]; Acinetobacter ursingii, isolate NO-Ab214, Acinetobacter ursingii, in combinations ETZ fixed at 8 mg/L) was no more than 0.06 mg/L, the MIC ([1]; Acinetobacter ursingii, isolate NO-Ab221, Acinetobacter ursingii, in combinations ETZ fixed at 8 mg/L) was 0.5 mg/L and the MIC ([1]; Acinetobacter ursingii, isolate NO-Ab222, Acinetobacter ursingii, in combinations ETZ fixed at 8 mg/L) was 0.5 mg/L. For the same compound, the MIC ([1]; Acinetobacter, MBC set, isolate NO-Ab84, A. bereziniae) was 1 mg/L (≈ 4.29 µM), the MIC ([1]; Acinetobacter, MBC set, isolate NO-Ab88, A. dijkshoorniae) was 0.5 mg/L (≈ 2.14 µM) and the MIC ([1]; Acinetobacter, isolate NO-Ab146, Acinetobacter iwoffii, in combinations ETZ fixed at 8 mg/L) was 2 mg/L. For the same compound, the MIC ([1]; Acinetobacter, isolate NO-Ab159, Acinetobacter iwoffii, in combinations ETZ fixed at 8 mg/L) was 0.5 mg/L, the MIC50 [1, 2] was 1 mg/L and the MIC90 [1, 2] was 2 mg/L. It also gave a pIC50 (OXA-23) of 4.53.
